# Literature values as cited in patent publication US9364497B2, “Treatment of cognitive disorders” (Isis Innovation Limited, priority 2010, dated 2016).
# Experiments:
# [1] = test system: normal participants with baseline tHcy levels >13 μmol/L; conditions: 0.8 mg/d for three years
# [2] = test system: subjects with mild cognitive impairment; conditions: MCI
# [3] = test system: mild cognitive impairment; conditions: MCI; over four years
compound,measurement,setting,value
Nc1nc2ncc(CNc3ccc(C(=O)N[C@@H](CCC(=O)O)C(=O)O)cc3)nc2c(=O)[nH]1 [folic acid],effect on cognitive tests,[1],beneficial effect on several cognitive tests
COc1ccc2c3c1O[C@H]1C[C@@H](O)C=C[C@@]31CCN(C)C2 [galantamine],deaths in treatment groups versus placebo,[2],significantly greater number of deaths
CCN(C)C(=O)Oc1cccc([C@H](C)N(C)C)c1 [rivastigmine],benefit on cognitive function,[3],no significant benefit
same,benefit on the progression rate to Alzheimer's Disease,[3],no significant benefit
